Test results taken from BigSolDB 2.1.

O=Cc1ccc(O)cc1
Conditions | solubility (mole fraction)
in 1,4-dioxane, 283.15 K | 0.0467
in 1,4-dioxane, 285.65 K | 0.0555
in 1,4-dioxane, 288.15 K | 0.0655
in 1,4-dioxane, 290.65 K | 0.0772
in 1,4-dioxane, 293.15 K | 0.0905
in 1,4-dioxane, 295.65 K | 0.106
in 1,4-dioxane, 298.15 K | 0.123
in 1,4-dioxane, 300.65 K | 0.141
in 1,4-dioxane, 303.15 K | 0.163
in 1,4-dioxane, 305.65 K | 0.186
in 1,4-dioxane, 308.15 K | 0.211
in 1,4-dioxane, 310.65 K | 0.238
in 1,4-dioxane, 313.15 K | 0.267
in 1,4-dioxane, 315.65 K | 0.299
in 1,4-dioxane, 318.15 K | 0.334
in 2-butanone, 278.15 K | 0.0731
in 2-butanone, 280.65 K | 0.0822
in 2-butanone, 283.15 K | 0.0911
in 2-butanone, 285.65 K | 0.101
in 2-butanone, 288.15 K | 0.111
in 2-butanone, 290.65 K | 0.123
in 2-butanone, 293.15 K | 0.135
in 2-butanone, 295.65 K | 0.148
in 2-butanone, 298.15 K | 0.163
in 2-butanone, 300.65 K | 0.177
in 2-butanone, 303.15 K | 0.194
in 2-butanone, 305.65 K | 0.21
in 2-butanone, 308.15 K | 0.229
in 2-butanone, 310.65 K | 0.247
in 2-butanone, 313.15 K | 0.267
in 2-butanone, 315.65 K | 0.288
in 2-butanone, 318.15 K | 0.309
in DMF, 278.15 K | 0.0741
in DMF, 280.65 K | 0.0863
in DMF, 283.15 K | 0.0997
in DMF, 285.65 K | 0.114
in DMF, 288.15 K | 0.131
in DMF, 290.65 K | 0.148
in DMF, 293.15 K | 0.168
in DMF, 295.65 K | 0.191
in DMF, 298.15 K | 0.214
in DMF, 300.65 K | 0.241
in DMF, 303.15 K | 0.27
in DMF, 305.65 K | 0.302
in DMF, 308.15 K | 0.338
in DMF, 310.65 K | 0.376
in DMF, 313.15 K | 0.416
in DMF, 315.65 K | 0.458
in DMF, 318.15 K | 0.504
in acetone, 278.15 K | 0.0713
in acetone, 280.65 K | 0.0796
in acetone, 283.15 K | 0.0889
in acetone, 285.65 K | 0.0986
in acetone, 288.15 K | 0.109
in acetone, 290.65 K | 0.12
in acetone, 293.15 K | 0.133
in acetone, 295.65 K | 0.145
in acetone, 298.15 K | 0.159
in acetone, 300.65 K | 0.174
in acetone, 303.15 K | 0.189
in acetone, 305.65 K | 0.205
in acetone, 308.15 K | 0.222
in acetone, 310.65 K | 0.24
in acetone, 313.15 K | 0.259
in acetone, 315.65 K | 0.279
in acetone, 318.15 K | 0.299
in acetonitrile, 278.15 K | 0.0318
in acetonitrile, 280.65 K | 0.036
in acetonitrile, 283.15 K | 0.0405
in acetonitrile, 285.65 K | 0.0454
in acetonitrile, 288.15 K | 0.0508
in acetonitrile, 290.65 K | 0.0567
in acetonitrile, 293.15 K | 0.0632
in acetonitrile, 295.65 K | 0.0704
in acetonitrile, 298.15 K | 0.0782
in acetonitrile, 300.65 K | 0.0867
in acetonitrile, 303.15 K | 0.0957
in acetonitrile, 305.65 K | 0.106
in acetonitrile, 308.15 K | 0.116
in acetonitrile, 310.65 K | 0.128
in acetonitrile, 313.15 K | 0.14
in acetonitrile, 315.65 K | 0.154
in acetonitrile, 318.15 K | 0.168
in ethanol, 278.15 K | 0.043
in ethanol, 280.65 K | 0.0493
in ethanol, 283.15 K | 0.0563
in ethanol, 285.65 K | 0.0639
in ethanol, 288.15 K | 0.0725
in ethanol, 290.65 K | 0.0815
in ethanol, 293.15 K | 0.0914
in ethanol, 295.65 K | 0.102
in ethanol, 298.15 K | 0.115
in ethanol, 300.65 K | 0.128
in ethanol, 303.15 K | 0.142
in ethanol, 305.65 K | 0.156
in ethanol, 308.15 K | 0.173
in ethanol, 310.65 K | 0.191
in ethanol, 313.15 K | 0.209
in ethanol, 315.65 K | 0.227
in ethanol, 318.15 K | 0.247
in ethyl acetate, 278.15 K | 0.0708
in ethyl acetate, 280.65 K | 0.0787
in ethyl acetate, 283.15 K | 0.0877
in ethyl acetate, 285.65 K | 0.0968
in ethyl acetate, 288.15 K | 0.106
in ethyl acetate, 290.65 K | 0.117
in ethyl acetate, 293.15 K | 0.129
in ethyl acetate, 295.65 K | 0.141
in ethyl acetate, 298.15 K | 0.155
in ethyl acetate, 300.65 K | 0.169
in ethyl acetate, 303.15 K | 0.184
in ethyl acetate, 305.65 K | 0.2
in ethyl acetate, 308.15 K | 0.216
in ethyl acetate, 310.65 K | 0.234
in ethyl acetate, 313.15 K | 0.251
in ethyl acetate, 315.65 K | 0.272
in ethyl acetate, 318.15 K | 0.293
in isopropanol, 278.15 K | 0.0535
in isopropanol, 280.65 K | 0.0607
in isopropanol, 283.15 K | 0.0683
in isopropanol, 285.65 K | 0.0773
in isopropanol, 288.15 K | 0.0868
in isopropanol, 290.65 K | 0.0972
in isopropanol, 293.15 K | 0.109
in isopropanol, 295.65 K | 0.121
in isopropanol, 298.15 K | 0.134
in isopropanol, 300.65 K | 0.148
in isopropanol, 303.15 K | 0.164
in isopropanol, 305.65 K | 0.18
in isopropanol, 308.15 K | 0.198
in isopropanol, 310.65 K | 0.218
in isopropanol, 313.15 K | 0.238
in isopropanol, 315.65 K | 0.259
in isopropanol, 318.15 K | 0.281
in methanol, 278.15 K | 0.0342
in methanol, 280.65 K | 0.0392
in methanol, 283.15 K | 0.0449
in methanol, 285.65 K | 0.0516
in methanol, 288.15 K | 0.0587
in methanol, 290.65 K | 0.0668
in methanol, 293.15 K | 0.076
in methanol, 295.65 K | 0.0858
in methanol, 298.15 K | 0.0969
in methanol, 300.65 K | 0.109
in methanol, 303.15 K | 0.121
in methanol, 305.65 K | 0.136
in methanol, 308.15 K | 0.151
in methanol, 310.65 K | 0.168
in methanol, 313.15 K | 0.186
in methanol, 315.65 K | 0.205
in methanol, 318.15 K | 0.224
in n-butanol, 278.15 K | 0.0545
in n-butanol, 280.65 K | 0.0615
in n-butanol, 283.15 K | 0.0692
in n-butanol, 285.65 K | 0.0775
in n-butanol, 288.15 K | 0.0864
in n-butanol, 290.65 K | 0.0963
in n-butanol, 293.15 K | 0.107
in n-butanol, 295.65 K | 0.118
in n-butanol, 298.15 K | 0.13
in n-butanol, 300.65 K | 0.143
in n-butanol, 303.15 K | 0.157
in n-butanol, 305.65 K | 0.171
in n-butanol, 308.15 K | 0.187
in n-butanol, 310.65 K | 0.203
in n-butanol, 313.15 K | 0.22
in n-butanol, 315.65 K | 0.239
in n-butanol, 318.15 K | 0.259
in n-propanol, 278.15 K | 0.0532
in n-propanol, 280.65 K | 0.0597
in n-propanol, 283.15 K | 0.0669
in n-propanol, 285.65 K | 0.0751
in n-propanol, 288.15 K | 0.0836
in n-propanol, 290.65 K | 0.093
in n-propanol, 293.15 K | 0.103
in n-propanol, 295.65 K | 0.114
in n-propanol, 298.15 K | 0.125
in n-propanol, 300.65 K | 0.138
in n-propanol, 303.15 K | 0.151
in n-propanol, 305.65 K | 0.165
in n-propanol, 308.15 K | 0.18
in n-propanol, 310.65 K | 0.196
in n-propanol, 313.15 K | 0.213
in n-propanol, 315.65 K | 0.23
in n-propanol, 318.15 K | 0.249
in toluene, 278.15 K | 0.000979
in toluene, 280.65 K | 0.00109
in toluene, 283.15 K | 0.00119
in toluene, 285.65 K | 0.00133
in toluene, 288.15 K | 0.00146
in toluene, 290.65 K | 0.00162
in toluene, 293.15 K | 0.00178
in toluene, 295.65 K | 0.00197
in toluene, 298.15 K | 0.00217
in toluene, 300.65 K | 0.00236
in toluene, 303.15 K | 0.00259
in toluene, 305.65 K | 0.00283
in toluene, 308.15 K | 0.00309
in toluene, 310.65 K | 0.0034
in toluene, 313.15 K | 0.00367
in toluene, 315.65 K | 0.00399
in toluene, 318.15 K | 0.00435
